Experimental findings from paper PMC11191602, “A novel and selective fluorescent ligand for the study of adenosine A2B receptors” (Pharmacology Research & Perspectives, 2024) are described below.

Molecules are shown by their SMILES. Like-named read-outs stand apart in the source and are kept apart here. A value given as a limit tells only on which side of the number the result lay.

One assay addresses T1, human NLuc‐A2AR (Homo sapiens, UniProt P29274).
T1 construct: expressed in transfected cells; host or cells: HEK293G, transient transfection with pcDNA3.1 NLuc-A2AR (FuGENE HD)
Put plainly: NanoBRET saturation binding in HEK293G cells transiently transfected with NLuc‐A2AR. The settings on record: non‐specific defined with 1 μM SCH58261; PSB603‐BY630 at concentrations up to 500 nM. How it is done:
The human A2A receptor cDNA was obtained from Missouri S&T cDNA Resource Centre (www.cdna.org) in a pcDNA3.1 expression vector. An N‐terminal nanoluciferase (NLuc)‐labeled human A2AR receptor constructs (NLuc‐A2AR) was then generated in frame with the full length NLuc incorporating a rat 5‐HT3A membrane localisation signal sequence in pcDNA3.1 as described previously.[37] For transient transfections, HEK293G cells were seeded at 20000 cells/well into white walled, clear bottomed 96‐wells plates (Greiner Bio‐One, Stonehouse, UK), coated with 10 μg/mL poly‐D‐lysine, in 100 μL medium/well and incubated at 37°C and 5% CO2 for 18–24 h. […]
Saturation and competition binding assays were performed as previously described.[36] […] The resulting bioluminescence resonance energy transfer (BRET) was measured using a PHERAstar FS plate reader (BMG Labtech) at 37°C. For each well, filtered light emissions at 460 nm (80 nm bandpass) and >610 nm (longpass) for the BODIPY630/650 ligand were simultaneously measured. BRET ratios were calculated by dividing the 610 nm emission by the 460 nm emission. […] For kinetic experiments, cells were preincubated for 10 min with 1:400 dilution of furimazine prior to addition of 200 nM PSB603‐BY630 and BRET ratios determined every 0.5 min. […]

For another assay, the target named is T2, NLuc‐A2BR (Homo sapiens, UniProt P29275).
T2 construct: expressed in transfected cells
T2 sequence (P29275 1-332): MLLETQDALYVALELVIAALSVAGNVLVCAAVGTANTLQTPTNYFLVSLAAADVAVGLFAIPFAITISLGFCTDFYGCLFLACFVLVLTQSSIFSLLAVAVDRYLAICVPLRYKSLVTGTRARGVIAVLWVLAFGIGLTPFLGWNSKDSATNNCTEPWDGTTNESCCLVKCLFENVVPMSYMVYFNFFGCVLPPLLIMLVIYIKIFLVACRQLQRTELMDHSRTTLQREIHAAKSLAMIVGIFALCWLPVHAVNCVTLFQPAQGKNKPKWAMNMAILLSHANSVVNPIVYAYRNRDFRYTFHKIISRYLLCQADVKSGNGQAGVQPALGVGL
Put plainly: NanoBRET ligand‐binding kinetics of 200 nM PSB603‐BY630 in HEK293G cells expressing NLuc‐A2BR. How it is done:
(§1) Saturation and competition binding assays were performed as previously described.[36] Briefly, cells were seeded in 96‐well white clear‐bottomed Greiner plates pre‐treated with 10 μg/mL poly‐D‐lysine (Sigma‐Aldrich, Missouri USA) at a density of 30 000–35 000 cells per well in DMEM supplemented with 10% FBS. The following day medium was removed and cells were incubated with PSB603‐BY630 in the presence or absence of 1 μM MRS1706 (saturation binding assays) or competing ligand in the presence of 50 nM PSB603‐BY630 (competition binding assays) in HEPES buffered saline solution (HBSS; 145 mM NaCl, 5 mM KCl, 1.3 mM CaCl2, 1 mM MgSO4, 10 mM HEPES, 2 mM sodium pyruvate, 1.5 mM NaHCO3, 10 mM D‐glucose, pH 7.45) with 0.1% bovine serum albumin for 1 h at 37°C. The NanoLuc substrate, furimazine (Promega Corporation, Wisconsin, USA), was then added to each well (1:400 dilution) and the plate was incubated for 10 min in the dark at 37°C. The resulting bioluminescence resonance energy transfer (BRET) was measured using a PHERAstar FS plate reader (BMG Labtech) at 37°C. For each well, filtered light emissions at 460 nm (80 nm bandpass) and >610 nm (longpass) for the BODIPY630/650 ligand were simultaneously measured. BRET ratios were calculated by dividing the 610 nm emission by the 460 nm emission. All conditions were performed in 2–6 replicates within each plate. For kinetic experiments, cells were preincubated for 10 min with 1:400 dilution of furimazine prior to addition of 200 nM PSB603‐BY630 and BRET ratios determined every 0.5 min. At 60 min, 10 μM MRS‐1706 was added and the ligand‐binding kinetics followed for a further 60 min.
For kinetic binding experiments, the BRET ratio obtained in the absence of fluorescent ligand was determined for each time point and subtracted from the total binding to obtain baseline‐corrected values for total binding at each time point. 60 min after addition of 200 nM PSB603‐BY630, 10 μM MRS‐1706 was added and the dissociation data fitted to the following equation to obtain values for the dissociation rate constant (k off) in min^−1: Y=Yo−NS.e^−koff.t+NS where [Yo] is the binding at time 60 min (when 10 μM MRS‐1706 was added), NS is the non‐specific binding at infinite time, k off is dissociation rate constant. The residence time in min was then calculated as the reciprocal of k off.

The target in another assay is T3, human NLuc‐A1R (Homo sapiens, UniProt P30542).
T3 construct: expressed in transfected cells
T3 sequence (P30542 1-326): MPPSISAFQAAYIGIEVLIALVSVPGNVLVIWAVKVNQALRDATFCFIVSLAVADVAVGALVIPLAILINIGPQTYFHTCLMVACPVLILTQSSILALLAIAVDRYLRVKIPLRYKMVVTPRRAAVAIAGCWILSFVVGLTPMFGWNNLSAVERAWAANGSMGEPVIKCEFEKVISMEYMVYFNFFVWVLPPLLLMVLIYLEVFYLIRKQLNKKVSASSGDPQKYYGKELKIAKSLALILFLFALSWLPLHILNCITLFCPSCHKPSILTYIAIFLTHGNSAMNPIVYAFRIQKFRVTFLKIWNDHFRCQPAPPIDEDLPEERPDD
Put plainly: NanoBRET saturation binding in stable HEK293T cell line expressing NLuc‐A1R. The note with it: non‐specific defined with 1 μM SLV320; PSB603‐BY630 at concentrations up to 500 nM. How it is done: as §1, with “The following day medium was removed and cells were incubated with PSB603‐BY630 in the presence or absence of 1 μM MRS1706 (saturation binding assays) or competing ligand in the presence of 50 nM PSB603‐BY630 (competition binding assays) in HEPES buffered saline solution (HBSS; 145 mM NaCl, 5 mM KCl, 1.3 mM CaCl2, 1 mM MgSO4, 10 mM HEPES, 2 mM sodium pyruvate, 1.5 mM NaHCO3, 10 mM D‐glucose, pH 7.45) with 0.1% bovine serum albumin for 1 h at 37°C.” left out

T1 sequence (P29274 whole entry): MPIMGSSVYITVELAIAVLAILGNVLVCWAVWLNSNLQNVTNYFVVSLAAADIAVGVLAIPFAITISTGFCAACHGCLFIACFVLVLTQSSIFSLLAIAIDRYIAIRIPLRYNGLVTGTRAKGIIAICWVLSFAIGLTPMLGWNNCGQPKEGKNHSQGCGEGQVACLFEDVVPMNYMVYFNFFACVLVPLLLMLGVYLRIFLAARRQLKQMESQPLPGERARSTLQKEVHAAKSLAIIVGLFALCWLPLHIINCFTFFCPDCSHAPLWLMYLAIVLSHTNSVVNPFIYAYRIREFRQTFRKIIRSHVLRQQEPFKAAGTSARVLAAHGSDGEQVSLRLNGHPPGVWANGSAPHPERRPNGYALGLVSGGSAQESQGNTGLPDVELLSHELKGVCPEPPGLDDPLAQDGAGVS

Turning to `CCCn1c(=O)[nH]c2[nH]c(-c3ccc(S(=O)(=O)N4CCN(c5ccc(OCCNC(=O)CCCCCNC(=O)COc6ccc(/C=C/C7=[N+]8C(=Cc9ccc(-c%10cccs%10)n9[B-]8(F)F)C=C7)cc6)cc5)CC4)cc3)nc2c1=O` [PSB603‐BY630], the “specific binding to NLuc‐A2AR” value on human NLuc‐A2AR is reported as “negligible”. The koff on NLuc‐A2BR (200 nM PSB603‐BY630, 10 μM MRS‐1706 at 60 min, single representative experiment (Figure 5), read-out: K off in representative experiment (converted)) was 0.000933 s⁻¹; at NLuc‐A2BR (200 nM PSB603‐BY630, dissociation initiated with 10 μM MRS‐1706 at 60 min, 37°C, 5 experiments, read-out: dissociation rate constant k off (mean) (converted)), 0.00108 s⁻¹. For the same molecule, the “time to reach binding equilibrium” value at NLuc‐A2BR (200 nM PSB603‐BY630, 37°C) is reported as ≤ 60 min. The same molecule gave a residence time at NLuc‐A2BR (reciprocal of k off, 37°C) of 15.4 min. Also, the “specific binding to NLuc‐A1R” value on human NLuc‐A1R is “negligible”.
